One assay relates to Triple negative breast cancer cell line CAL51. Briefly: Cell Titer Glo proliferation assay, CAL51. The conditions noted are these: Homo sapiens, CAL-51; CAL51 cell proliferation (Table 1); read-out: Act. Level. The class given is cell-based. The protocol:
Cell Titer Glo Proliferation Assay.
Triple negative breast cancer cell line CAL51 was purchased from DSMZ. […] Allcell lines were maintained in growth media consisting of 90% high glucose Dulbecco's Modified Eagle Medium or RPMI1640 (Invitrogen), 10% fetal bovine serum (Hyclone), and 2 mM L-glutamine (Invitrogen). […] After overnight culture, compound stock (30 mM) was diluted serially in DMSO, further diluted in growth media, and was added to each well as a 10× concentrated solution in a volume of 11 μL, mixed, and allowed to incubate with cells. The compound vehicle (DMSO) was maintained at a final concentration of 0.2% in all wells. After 72 h, 100 μL of Cell Titer Glo solution (Promega) was added to each well of the 96-well plate. The plate was placed on a shaker for 2 minutes. After 10 minutes incubation, the luminescence signal was detected with Envision microplate reader (Perkin Elmer).
On the technique in general: ATP-based viability assays read luminescence as a measure of living cells.
As to `COc1cc(C(=O)N(C)C)ccc1Nc1nc(OC(C)C)c2c(-c3ccnc(F)c3)c[nH]c2n1` [Example 403, 4-(5-(2-fluoropyridin-4-yl)-4-isopropoxy-7H-pyrrolo[2,3-d]pyrimidin-2-ylamino)-3-methoxy-N,N-dimethylbenzamide], the IC50 was < 100 nM.

For `CNC(=O)c1ccc(-c2c[nH]c3nc(Nc4ccc(C(=O)NC)cc4Cl)nc(O[C@@H]4CCOC4)c23)cc1` [Example 434, (R)-3-chloro-N-methyl-4-(5-(4-(methylcarbamoyl)phenyl)-4-(tetrahydrofuran-3-yloxy)-7H-pyrrolo[2,3-d]pyrimidin-2-ylamino)benzamide], the IC50 is < 100 nM.

Take `COc1cc(C(=O)N(C)C)ccc1Nc1nc(OC)c2c(-c3ccc4c(C)noc4c3)c[nH]c2n1` [Example 408, 3-methoxy-4-(4-methoxy-5-(3-methylbenzo[d]isoxazol-6-yl)-7H-pyrrolo[2,3-d]pyrimidin-2-ylamino)-N,N-dimethylbenzamide]: the IC50 fell in the range of 100 to 400 nM.

Consider `COc1cc(C(=O)N(C)C)ccc1Nc1nc(OC)c2c(-c3cc(C)nc(F)c3)c[nH]c2n1` [Example 418, 4-(5-(2-fluoro-6-methylpyridin-4-yl)-4-methoxy-7H-pyrrolo[2,3-d]pyrimidin-2-ylamino)-3-methoxy-N,N-dimethylbenzamide], for which the IC50 was < 100 nM.

As for `COc1nc(Nc2ccc(C(=O)N(C)C)cc2C)nc2[nH]cc(-c3ccnc(F)c3)c12` [Example 409, 4-(5-(2-fluoropyridin-4-yl)-4-methoxy-7H-pyrrolo[2,3-d]pyrimidin-2-ylamino)-N,N,3-trimethylbenzamide], the IC50 fell in the range of 400 to 1000 nM.

Regarding `COc1cc(C(=O)NC2COC2)ccc1Nc1nc(OC)c2c(-c3cn(C)nc3Cl)c[nH]c2n1` [Example 417, 4-(5-(3-chloro-1-methyl-1H-pyrazol-4-yl)-4-methoxy-7H-pyrrolo[2,3-d]pyrimidin-2-ylamino)-3-methoxy-N-(oxetan-3-yl)benzamide], the IC50 was 1000 to 10000 nM.

`COc1nc(Nc2ccc(C(=O)N(C)C)cc2C)nc2[nH]cc(-c3ccc4nc(C)n(C)c4c3)c12` [Example 407, 4-(5-(1,2-dimethyl-1H-benzo[d]imidazol-6-yl)-4-methoxy-7H-pyrrolo[2,3-d]pyrimidin-2-ylamino)-N,N,3-trimethylbenzamide]: the IC50 lay in the range of 100 to 400 nM.

For the compound `CCc1cc(C(=O)NC)ccc1Nc1nc(OC2CCOCC2)c2c(-c3ccc4nc(C)oc4c3)c[nH]c2n1` [Example 435, 3-ethyl-N-methyl-4-(5-(2-methylbenzo[d]oxazol-6-yl)-4-(tetrahydro-2H-pyran-4-yloxy)-7H-pyrrolo[2,3-d]pyrimidin-2-ylamino)benzamide], the IC50 is < 100 nM.

In the case of `CCCc1cc(C(=O)NC)ccc1Nc1nc(OC2CCOCC2)c2c(-c3ccc4nc(C)oc4c3)c[nH]c2n1` [Example 436, N-methyl-4-(5-(2-methylbenzo[d]oxazol-6-yl)-4-(tetrahydro-2H-pyran-4-yloxy)-7H-pyrrolo[2,3-d]pyrimidin-2-ylamino)-3-propylbenzamide], the IC50 is < 100 nM.

As for `Cc1nc2ccc(-c3c[nH]c4nc(Nc5ccc(C(=O)NCCO)cc5Cl)nc(OC5CCOCC5)c34)cc2o1` [Example 431, 3-chloro-N-(2-hydroxyethyl)-4-(5-(2-methylbenzo[d]oxazol-6-yl)-4-(tetrahydro-2H-pyran-4-yloxy)-7H-pyrrolo(2,3-d]pyrimidin-2-ylamino)benzamide], the IC50 was < 100 nM.

The assay is the same for the next values; noted with them: Homo sapiens, CAL-51; CAL51 cell proliferation, Cell Titer Glo; read-out: Act. Level.
With `COc1cc(C(=O)NC2COC2)ccc1Nc1nc(O[C@H]2CCOC2)c2c(-c3ccc4nc(C)oc4c3)c[nH]c2n1` [Example 343, (S)-3-methoxy-4-(5-(2-methylbenzo[d]oxazol-6-yl)-4-(tetrahydrofuran-3-yloxy)-7H-pyrrolo[2,3-d]pyrimidin-2-ylamino)-N-(oxetan-3-yl)benzamide], the IC50 was < 100 nM.

As for `CNC(=O)c1ccc(-c2c[nH]c3nc(Nc4ccc(C(=O)NC5CN(C)C5)cc4OC)nc(O[C@H]4CCOC4)c23)cc1` [Example 375, (S)-3-methoxy-N-(1-methylazetidin-3-yl)-4-(5-(4-(methylcarbamoyl)phenyl)-4-(tetrahydrofuran-3-yloxy)-7H-pyrrolo[2,3-d]pyrimidin-2-ylamino)benzamide], the IC50 was 400 to 1000 nM.

For the compound `CNC(=O)c1ccc(-c2c[nH]c3nc(Nc4ccc(C(=O)NC5COC5)cc4OC)nc(OCCOC)c23)cc1` [Example 373, 3-methoxy-4-(4-(2-methoxyethoxy)-5-(4-(methylcarbamoyl)phenyl)-7H-pyrrolo[2,3-d]pyrimidin-2-ylamino)-N-(oxetan-3-yl)benzamide], the IC50 was in the range of 100 to 400 nM.

As to `COc1nc(Nc2ccc(C(=O)N(C)C)cc2C)nc2[nH]cc(-c3ccc(-c4ncc[nH]4)cc3)c12` [Example 397, 4-(5-(4-(1H-imidazol-2-yl)phenyl)-4-methoxy-7H-pyrrolo[2,3-d]pyrimidin-2-ylamino)-N,N,3-trimethylbenzamide], the IC50 was < 100 nM.

For `Cc1nc2ccc(-c3c[nH]c4nc(Nc5cnn(C6CCOCC6)c5Cl)nc(OC5CCCC5)c34)cc2o1` [Example 377, N-(5-chloro-1-(tetrahydro-2H-pyran-4-yl)-1H-pyrazol-4-yl)-4-(cyclopentyloxy)-5-(2-methylbenzo[d]oxazol-6-yl)-7H-pyrrolo[2,3-d]pyrimidin-2-amine], the IC50 was < 100 nM.

As to `CNC(=O)c1ccc(-c2c[nH]c3nc(Nc4ccc(C(=O)NC5COC5)cc4OC)nc(OC4CC(C#N)C4)c23)cc1` (stereo not drawn) [Example 341, 4-(4-(3-cyanocyclobutoxy)-5-(4-(methylcarbamoyl)phenyl)-7H-pyrrolo[2,3-d]pyrimidin-2-ylamino)-3-methoxy-N-(oxetan-3-yl)benzamide], the IC50 was < 100 nM.

In the case of `CNC(=O)c1ccc(-c2c[nH]c3nc(Nc4ccc(C(=O)NCCO)cc4OC)nc(OC4CCC4)c23)cc1` [Example 331, 4-(4-cyclobutoxy-5-(4-(methylcarbamoyl)phenyl)-7H-pyrrolo[2,3-d]pyrimidin-2-ylamino)-N-(2-hydroxyethyl)-3-methoxybenzamide], the IC50 lay in the range of 100 to 400 nM.

Regarding `CNC(=O)c1ccc(-c2c[nH]c3nc(Nc4ccc(C(=O)NC5COC5)cc4OC)nc(OC4CC4)c23)cc1` [Example 344, 4-(4-cyclopropoxy-5-(4-(methylcarbamoyl)phenyl)-7H-pyrrolo[2,3-d]pyrimidin-2-ylamino)-3-methoxy-N-(oxetan-3-yl)benzamide], the IC50 was 100 to 400 nM.

In the case of `CNC(=O)c1ccc(Nc2nc(OC3CCCC3)c3c(-c4ccc(OC)cc4OC)c[nH]c3n2)c(OC)c1` [Example 320, 4-(4-(cyclopentyloxy)-5-(2,4-dimethoxyphenyl)-7H-pyrrolo[2,3-d]pyrimidin-2-ylamino)-3-methoxy-N-methylbenzamide], the IC50 lay within 1000 to 10000 nM.

`COc1cc(C(=O)NC2CN(C)C2)ccc1Nc1nc(OC(C)C)c2c(-c3ccc4nc(C)oc4c3)c[nH]c2n1` [Example 356, 4-(4-isopropoxy-5-(2-methylbenzo[d]oxazol-6-yl)-7H-pyrrolo[2,3-d]pyrimidin-2-ylamino)-3-methoxy-N-(1-methylazetidin-3-yl)benzamide]: the IC50 was < 100 nM.

In the case of `COc1cc(C(=O)NC2COC2)ccc1Nc1nc(OC)c2c(-c3ccnc(C)c3)c[nH]c2n1` [Example 383, 3-methoxy-4-(4-methoxy-5-(2-methylpyridin-4-yl)-7H-pyrrolo[2,3-d]pyrimidin-2-ylamino)-N-(oxetan-3-yl)benzamide], the IC50 is < 100 nM.

With `COc1nc(Nc2ccc(C(=O)N(C)C)cc2C)nc2[nH]cc(-c3ccc(F)cc3)c12` [Example 390, 4-(5-(4-fluorophenyl)-4-methoxy-7H-pyrrolo[2,3-d]pyrimidin-2-ylamino)-N,N,3-trimethylbenzamide], the IC50 lay in the range of 1000 to 10000 nM.

On to `COc1cc(C(=O)NC2COC2)ccc1Nc1nc(OC)c2c(-c3ccnc(F)c3)c[nH]c2n1` [Example 381, 4-(5-(2-fluoropyridin-4-yl)-4-methoxy-7H-pyrrolo[2,3-d]pyrimidin-2-ylamino)-3-methoxy-N-(oxetan-3-yl)benzamide], for which the IC50 was in the range of 100 to 400 nM.

As to `COc1cc(C(=O)NC2COC2)ccc1Nc1nc(OC2CCC2)c2c(-c3ccc(-c4ncc[nH]4)cc3)c[nH]c2n1` [Example 360, 4-(5-(4-(1H-imidazol-2-yl)phenyl)-4-cyclobutoxy-7H-pyrrolo[2,3-d]pyrimidin-2-ylamino)-3-methoxy-N-(oxetan-3-yl)benzamide], the IC50 was < 100 nM.

As to `COc1cc(C(=O)NC2COC2)ccc1Nc1nc(OC)c2c(-c3cnn(C)c3)c[nH]c2n1` [Example 382, 3-methoxy-4-(4-methoxy-5-(1-methyl-1H-pyrazol-4-yl)-7H-pyrrolo[2,3-d]pyrimidin-2-ylamino)-N-(oxetan-3-yl)benzamide], the IC50 was 100 to 400 nM.

With `CNC(=O)c1ccc(Nc2nc(OCCOC)c3c(-c4cnn(C)c4)c[nH]c3n2)c(OC)c1` [Example 326, 3-methoxy-4-(4-(2-methoxyethoxy)-5-(1-methyl-1H-pyrazol-4-yl)-7H-pyrrolo[2,3-d]pyrimidin-2-ylamino)-N-methylbenzamide], the IC50 was < 100 nM.

The assay is the same for the next values; noted with them: Homo sapiens, CAL-51; CAL51 cell proliferation; activity level class of IC50; read-out: Act. Level.
For `CNC(=O)c1ccc(Nc2nc(OC3CCC(O)CC3)c3c(-c4ccc5nc(C)oc5c4)c[nH]c3n2)c(OC)c1` (stereo not drawn) [Example 137, 4-(4-((1r,4r)-4-hydroxycyclohexyloxy)-5-(2-methylbenzo[d]oxazol-6-yl)-7H-pyrrolo[2,3-d]pyrimidin-2-ylamino)-3-methoxy-N-methylbenzamide], the IC50 is < 100 nM.

Source of the values: US9795607B2, “Substituted pyrrolopyrimidine compounds, compositions thereof, and methods of treatment therewith” (Signal Pharmaceutical, LLC, priority 2013, dated 2017).
